Laboratory results reported in patent US11639364B2, “Potent sialyltransferase inhibitors” (STICHTING RADBOUD UNIVERSITEIT, priority 2018, dated 2023).
Where two headings read alike, the source gives them in different places.

Assays:
B16-F10 cells = assay: Inhibition of cell surface sialylation, lectin staining and flow cytometry, B16-F10 cells; format: cell-based, Mouse; settings: Mus musculus, 72 h, three days
Description: (§1) Mouse B16-F10 melanoma cells (ATCC CRL-6475) were cultured in Minimum Essential Medium (MEM) (Gibco, Invitrogen, Carlsbad, Calif.) containing 5% fetal bovine serum (FBS) (Greiner Bio-one, Frickenhausen, Germany), 1% MEM non-essential amino acids (Gibco), 0.15% sodium bicarbonate (Gibco), 1 mM sodium pyruvate (Gibco), 1.5% MEM vitamins (Gibco), 1% antibiotic-antimycotic solution (50 U/ml penicillin, 50 μg/ml streptomycin and 125 ng/ml amphotericin B) (Gibco). The murine 9464D neuroblastoma cell line was cultured in Dulbecco's Modified Eagle's Medium (DMEM, Glutamax, Gibco) with 10% FBS, 1% non-essential amino acids, 50 μM 2-mercaptoethanol (Sigma-Aldrich) and 1% antibiotic-antimycotic solution (Kroesen et al., 2014, DOI: 10.1002/ijc.28463, Stauffer et al., 2012, DOI: 10.3109/07357907.2012.664670). The murine EL4 T lymphocyte cell line (ATCC TIB-39) was cultured in Iscove's Modified Dulbecco's Medium (IMDM, Gibco) supplemented with 5% FBS and 1% antibiotic-antimycotic solution. Human HEK293 (ATCC CRL-1573) kidney cells and human HeLa (ATCC CCL-2) cervical cancer cells were cultured in DMEM containing 10% FBS, 2 mM glutamine (Lonza, Walkersville, Md.) and 1% antibiotic-antimycotic solution. Human monocytic THP-1 cells (TIB-202, ATCC) were cultured in RRMI-1640 medium (Gibco) supplemented with 10% FBS, 2 mM glutamine and 1% antibiotic-antimycotic solution. All cell lines were cultured in a humidified 5% CO2 incubator at 37° C.
(§2) To assess the effect of the synthesized compounds on cell surface sialylation, different murine and human cell lines were cultured for three days in the presence of 0-204.8 μM amide and carbamate fluorine sialic acids. Cells treated with an equal final percentage of DMSO were used as control and all cells were subjected to lectin staining and flow cytometry as described below. To investigate the longevity of the effect of the fluorine sialic acids on cell surface sialylation, B16-F10 cells treated with 25.6 μM or 51.2 μM were thoroughly washed with medium to remove fluorine sialic acids from the culture and reseeded. During a period of six days, cells were harvested every day and sialylation was assessed by flow cytometry.
(§3) For the lectin staining, all cells were harvested and washed with 1× carbo-free blocking solution (Vector Laboratories, Inc., Burlingame, Calif., USA) and stained for 45 minutes at 4° C. in 1× carbo-free blocking solution containing 1 mM CaCl2), 1 mM MgCl2 and biotinylated MALII (5 μg/ml), SNA-1 (1 μg/ml) or PNA (5 μg/ml) all obtained from Vector Laboratories Inc. MALII recognizes α2,3-linked sialic acids, SNA-1 recognizes α2,6-linked sialic acids and PNA binds to terminal 3-galactose. In addition, B16-F10 cells were stained with 2 μg/ml biotinylated AAL (α-linked Fucose), LCA (α-linked Mannose), PHA-L (complex glycans), GSL-I (α-linked Galactose and N-Acetylgalactosamine), WGA (chitobiose), SJA (β-linked Galactose and N-Acetylgalactosamine) and PSA (Glucose and Mannose) purchased from Vector Laboratories Inc. Next, the cells were washed thrice in PBA (1×PBS, 1% BSA, and 0.02% sodium azide) and stained for 10 minutes at 4° C. with 2 μg/ml streptavidin-phycoerythrin (PE) (BD Pharmingen, Franklin Lakes, N.J., USA). The cells were washed thrice again with PBA and fluorescence was assessed using a CyAn ADP flow cytometer (BD Biosciences, San Jose, Calif.) followed by analysis with FlowJo software (Tree Star Inc., Ashland, Oreg.). Untreated cells stained with streptavidin-PE only served as background fluorescence control. The percentages lectin binding was calculated by normalizing the mean fluorescence intensity values from the treated cells with the DMSO controls.
(§4) IC50 values and statistics were calculated using Prism 5.03 (GraphPad Software, Inc., La Jolla, Calif.). Statistical significance between the different groups was calculated using one-way ANOVA followed by Bonferroni post-hoc testing and P-values<0.05 were considered significant (p<0.05 *, p<0.01 **, p<0.001 ***). […]

9464D cells = assay: Inhibition of cell surface sialylation, lectin staining and flow cytometry, 9464D cells; format: cell-based, murine; settings: Mus musculus, 72 h, three days
Description: as §1, §2, §3, §4

EL4 cells = assay: Inhibition of cell surface sialylation, lectin staining and flow cytometry, EL4 cells; format: cell-based, murine; settings: Mus musculus, 72 h, three days
Description: as §1, §2, §3, §4

HeLa cells = assay: Inhibition of cell surface sialylation, lectin staining and flow cytometry, HeLa cells; format: cell-based, human; settings: Homo sapiens, 72 h, three days
Description: as §1, §2, §3, §4

THP-1 cells = assay: Inhibition of cell surface sialylation, lectin staining and flow cytometry, THP-1 cells; format: cell-based, Human; settings: Homo sapiens, 72 h, three days
Description: as §1, §2, §3, §4

HEK293 cells = assay: Inhibition of cell surface sialylation, lectin staining and flow cytometry, HEK293 cells; format: cell-based, Human; settings: Homo sapiens, 72 h, three days
Description: as §1, §2, §3, §4

[1] = MALII lectin binding, read-out: α2,3-Sia IC50
[2] = SNA-I lectin binding, read-out: α2,6-Sia IC50

Compound	IC50 (B16-F10 cells; [1]) [µM]	IC50 (B16-F10 cells; [2]) [µM]	IC50 (9464D cells; [1]) [µM]	IC50 (9464D cells; [2]) [µM]	IC50 (EL4 cells; [1]) [µM]	IC50 (EL4 cells; [2]) [µM]	IC50 (HeLa cells; [1]) [µM]	IC50 (HeLa cells; [2]) [µM]	IC50 (THP-1 cells; [1]) [µM]	IC50 (THP-1 cells; [2]) [µM]	IC50 (HEK293 cells; [1]) [µM]	IC50 (HEK293 cells; [2]) [µM]
C#CCCC(=O)N[C@@H]1C(OC(C)=O)C(F)C(OC(C)=O)(C(=O)OC)OC1[C@H](OC(C)=O)[C@@H](COC(C)=O)OC(C)=O (stereo partly drawn) [SiaFPen, Methyl 5-(4-pentynacetamido)-2,4,7,8,9-penta-O-acetyl-3,5-dideoxy-3-fluoro-D-glycero-β-galacto-non-2-ulopyranosonate, reference compound]	40.6 ± 5.67	52.5 ± 4.31	> 102	> 102	> 102	> 102	62.3 ± 3.91	51.2 ± 6.06	10.4 ± 2.14	12.6 ± 3.51	26.2 ± 2.37	44.7 ± 4.33
COC(=O)C1(OC(C)=O)OC([C@H](OC(C)=O)[C@@H](COC(C)=O)OC(C)=O)[C@H](NC(=O)OC(C)(C)C)C(OC(C)=O)C1F (stereo partly drawn) [SiaFBoc, Methyl 5-(tert-butoxycarbamado)-2,4,7,8,9-penta-O-acetyl-3,5-dideoxy-3-fluoro-D-glycero-β-galacto-non-2-ulopyranosonate]	3.48 ± 0.56	8.21 ± 0.67	36.5 ± 3.81	> 102	54.6 ± 3.22	50.3 ± 3.99	12.8 ± 1.61	20.6 ± 1.95	1.28 ± 1.36	1.72 ± 2.3	10.4 ± 4.76	28 ± 2.57
COC(=O)C1(OC(C)=O)OC([C@H](OC(C)=O)[C@@H](COC(C)=O)OC(C)=O)[C@H](NC(=O)CN=[N+]=[N-])C(OC(C)=O)C1F (stereo partly drawn) [SiaFAz, Methyl 5-(azidoacetamido)-2,4,7,8,9-penta-O-acetyl-3,5-dideoxy-3-fluoro-D-glycero-β-galacto-non-2-ulopyranosonate, reference compound]	19.9 ± 2.08	32.8 ± 3.55	> 102	> 102	> 102	> 102	80.6 ± 3.26	42.2 ± 8.42	10.9 ± 1.98	13.2 ± 3.02	45.6 ± 5.14	47.2 ± 2.89
CCCCOC(=O)N[C@@H]1C(OC(C)=O)C(F)C(OC(C)=O)(C(=O)OC)OC1[C@H](OC(C)=O)[C@@H](COC(C)=O)OC(C)=O (stereo partly drawn) [SiaFnBu, Methyl 5-(butylcarbamado)-2,4,7,8,9-penta-O-acetyl-3,5-dideoxy-3-fluoro-D-glycero-β-galacto-non-2-ulopyranosonate]	7.45 ± 0.92	7.91 ± 1.95	–	–	–	–	–	–	–	–	–	–
COCCOC(=O)N[C@@H]1C(OC(C)=O)C(F)C(OC(C)=O)(C(=O)OC)OC1[C@H](OC(C)=O)[C@@H](COC(C)=O)OC(C)=O (stereo partly drawn) [SiaFMox, Methyl 5-(2-methoxy-ethylcarbamado)-2,4,7,8,9-penta-O-acetyl-3,5-dideoxy-3-fluoro-D-glycero-R-galacto-non-2-ulopyranosonate]	25.5 ± 2.53	32.4 ± 1.38	–	–	–	–	–	–	–	–	–	–
COC(=O)C1(OC(C)=O)OC([C@H](OC(C)=O)[C@@H](COC(C)=O)OC(C)=O)[C@H](NC(=O)COC(C)=O)C(OC(C)=O)C1F (stereo partly drawn) [SiaFGc, Methyl 5-(acetoxyamido)-2,4,7,8,9-penta-O-acetyl-3,5-dideoxy-3-fluoro-D-glycero-β-galacto-non-2-ulopyranosonate]	4.98 ± 0.33	11.8 ± 2.27	> 102	> 102	> 102	> 102	16.6 ± 3.91	12.5 ± 2.52	4.24 ± 2	5.94 ± 2.18	53.6 ± 5.25	54.1 ± 15.3
COC(=O)C1(OC(C)=O)OC([C@H](OC(C)=O)[C@@H](COC(C)=O)OC(C)=O)[C@H](NC(=O)CCl)C(OC(C)=O)C1F (stereo partly drawn) [SiaFAcC, Methyl 5-(chloroacetamido)-2,4,7,8,9-penta-O-acetyl-3,5-dideoxy-3-fluoro-D-glycero-β-galacto-non-2-ulopyranosonate, reference compound]	18 ± 2.12	–	–	–	–	–	–	–	–	–	–	–
COC(=O)C1(OC(C)=O)OC([C@H](OC(C)=O)[C@@H](COC(C)=O)OC(C)=O)[C@H](NC(=O)OCc2ccccc2)C(OC(C)=O)C1F (stereo partly drawn) [SiaFCbz, Methyl 5-(benzylcarbamado)-2,4,7,8,9-penta-O-acetyl-3,5-dideoxy-3-fluoro-D-glycero-β-galacto-non-2-ulopyranosonate, reference compound]	14.5 ± 3.51	–	–	–	–	–	–	–	–	–	–	–

The remaining compounds from weak to strong by IC50 (B16-F10 cells; [1]), led by results:

IC50 (B16-F10 cells; [1]) [µM]	IC50 (B16-F10 cells; [2]) [µM]	IC50 (9464D cells; [1]) [µM]	IC50 (9464D cells; [2]) [µM]	IC50 (EL4 cells; [1]) [µM]	IC50 (EL4 cells; [2]) [µM]	IC50 (HeLa cells; [1]) [µM]	IC50 (HeLa cells; [2]) [µM]	IC50 (THP-1 cells; [1]) [µM]	IC50 (THP-1 cells; [2]) [µM]	Compound	IC50 (HEK293 cells; [1]) [µM]	IC50 (HEK293 cells; [2]) [µM]
4.89 ± 0.25	7.54 ± 1.34	18.3 ± 2.67	29.6 ± 4.67	59.2 ± 4.17	52.7 ± 5.45	6.33 ± 3.26	5.23 ± 1.88	1.98 ± 0.91	2.65 ± 1.6	COC(=O)N[C@@H]1C(OC(C)=O)C(F)C(OC(C)=O)(C(=O)OC)OC1[C@H](OC(C)=O)[C@@H](COC(C)=O)OC(C)=O (stereo partly drawn) [SiaFMe, Methyl 5-(methylcarbamado)-2,4,7,8,9-penta-O-acetyl-3,5-dideoxy-3-fluoro-D-glycero-β-galacto-non-2-ulopyranosonate]	3.31 ± 1.24	4.77 ± 2.8
3.33 ± 0.12	15.1 ± 3.7	24.4 ± 2.95	36.1 ± 6.4	51.8 ± 18.7	51.1 ± 8.97	5.15 ± 2.4	4.32 ± 1.82	0.5 ± 1.34	0.62 ± 1.77	COC(=O)C1(OC(C)=O)OC([C@H](OC(C)=O)[C@@H](COC(C)=O)OC(C)=O)[C@H](NC(=O)OCC(C)C)C(OC(C)=O)C1F (stereo partly drawn) [SiaFiBu, Methyl 5-(isobutylcarbamado)-2,4,7,8,9-penta-O-acetyl-3,5-dideoxy-3-fluoro-D-glycero-β-galacto-non-2-ulopyranosonate]	11.4 ± 4.73	9.61 ± 4.83
1.39 ± 0.21	2.87 ± 0.8	6.91 ± 3.56	9.64 ± 3.93	39.9 ± 4.95	50.9 ± 6.44	1.77 ± 1.78	2.04 ± 1.4	0.41 ± 0.73	0.38	C=CCOC(=O)N[C@@H]1C(OC(C)=O)C(F)C(OC(C)=O)(C(=O)OC)OC1[C@H](OC(C)=O)[C@@H](COC(C)=O)OC(C)=O (stereo partly drawn) [SiaFAII, 5-(alloxycarbamado)-2,4,7,8,9-penta-O-acetyl-3,5-dideoxy-3-fluoro-D-glycero-β-galacto-non-2-ulopyranosonate]	1.83 ± 1.19	1.68 ± 3.2
0.72 ± 0.2	2.59 ± 0.07	10.7 ± 2.85	40.2 ± 6.56	51 ± 8.62	51.6 ± 2.62	1.65 ± 2.27	1.37 ± 0.81	0.42 ± 0.9	0.44	C#CCOC(=O)N[C@@H]1C(OC(C)=O)C(F)C(OC(C)=O)(C(=O)OC)OC1[C@H](OC(C)=O)[C@@H](COC(C)=O)OC(C)=O (stereo partly drawn) [SiaFPoc, Methyl 5-(propargylcarbamado)-2,4,7,8,9-penta-O-acetyl-3,5-dideoxy-3-fluoro-D-glycero-β-galacto-non-2-ulopyranosonate]	1.19 ± 1.47	5.42 ± 1.4
